Assay results as given in patent US12496306B2 (REMEDY PHARMACEUTICALS, INC., priority 2021, dated 2025).

Assay: Compounding experiments, bulk solution stability in Tris buffer
Assay type: physicochemical
Conditions: 1 mg/ml, at least 24 h, room temperature
Text: This is because Tris buffers effectively in the range of pH 7-9 (i.e. ±1 pH unit from pKa of 8.1). Outside of this pH range, the bulk solution is no longer buffered even with the addition of Tris. To maintain bulk solution stability, it is necessary to increase the compounding pH above 9, which is outside of the buffering range of Tris.

- minimum compounding pH required to maintain bulk solution stability: ≥ 9.1
SMILES: COc1ccc(Cl)cc1C(=O)NCCc1ccc(S(=O)(=O)NC(=O)NC2CCCCC2)cc1 [glibenclamide, 5-chloro-N-(4-[N-(cyclohexylcarbamoyl)sulfamoyl]phenethyl)-2-methoxybenzamide]
